# Key:
# fecal bile acids = test: Fecal bile acid excretion, ascending multiple oral doses of LUM001 in healthy adults; format: in vivo, human
# Protocol: This Phase 1 study was a randomized, double-blind, placebo-controlled study of ascending multiple oral doses of LUM001 in healthy, adult subjects. This study was conducted at a single center. There were 13 LUM001 dosing panels: 10, 20, 60, 100, and 20 mg every morning (qAM) (2) (i.e., the regimen was tested a second time in the study), 5 mg every evening (qPM), 0.5, 1, 2.5, 5, 2.5 (2), 5 (2), and 0.5 to 5 mg qAM dose titration. Most of the dosing panels included subjects treated with matching placebo. No subject participated in more than 1 dosing panel. Subjects were randomized into the study by dosing panel, and all subjects within a dosing panel received study medication at approximately the same time each day. Safety was reviewed for each panel before subsequent panels were initiated. A total of 167 subjects were treated for 28 days, 147 with LUM001 and 20 with placebo.
# During the Pretreatment Screening Period (Days −31 through −4), subjects were seen on an outpatient basis to determine study eligibility based on enrollment criteria. On Day −3, eligible subjects were admitted to the research facility during the morning. Subjects were confined to the research facility from Days −3 to 30. During the entire period of confinement to the research facility, subjects received a study diet composed of 35% of caloric intake from fat, 15% from protein, and 50% from carbohydrates. The total daily caloric intake (based on the subject's weight) was fixed and divided into 3 equicaloric equal-fat-containing meals. The fixed fat composition and caloric content of the diet was designed to reduce inter- and intra-subject variability of serum total bile acids (SBA) and FBA, lipid parameters, and fat absorption parameters.
# On Day 1 of the Treatment Period, subjects who qualified for enrollment were randomized in the order in which they were admitted to the research facility. On the same day, subjects began receiving study medication. Subsequent analyses included clinical and laboratory safety assessments and profiles of PK, PD, and lipid parameters. The safety and tolerability of LUM001 were evaluated by physical examination, ascertainment of adverse signs and symptoms, and clinical laboratory studies. Blood and urine samples were obtained for measurement of LUM001 plasma, whole blood, and urine concentrations for subsequent PK analyses. Efficacy responses included measuring FBA as a surrogate marker for the inhibition of intestinal bile acid transport. For the qAM dosing panels, LUM001 or placebo was administered each day of the treatment period (28 days) immediately prior to the morning meal at approximately 08:00 and after any necessary blood work was drawn.
# Fecal samples were collected for all panels except the dose-titration panel, 2.5 (2) and 5 mg (2), on Days 9 through 14 and 23 through 28 (data shown in FIG. 6; *p<0.05; **p<0.01 compared to placebo). Twenty-four hour FBA excretions were quantified by Pharmacia for Days 9 through 14 and 23 through 28. Feces were collected in a 24-hour collection container beginning at 08:00 and ending 24 hours later. This procedure was followed on Days 9 through 14 and 23 through 28, with new collection containers issued for each 24-hour period. The weight of each 24-hour fecal collection was recorded on the CRFs. Specimens were stored in 24-hour containers, frozen at approximately −80° C. prior to analysis.
# An aliquot for each 24-hour fecal sample collected on Days 23 through 28 was combined, homogenized, and analyzed for bile acid species concentrations by ANAPHARM. The fecal bile acid species evaluated include chenodeoxycholic acid, cholic acid, deoxycholic acid, and lithocholic acid.
# plasma lipase = test: Plasma lipase in ZDF rats, week 3; format: in vivo; conditions: twice daily oral gavage
# [1] = Pharmacokinetics of LUM002 100 mg single oral dose in humans; format: in vivo, human
# Protocol: Healthy male subjects, from 18 to 45 years of age, were given a single oral solution dose (100 mg in 100 mL) of LUM002 under fasting conditions. Blood samples for the determination of LUM002 plasma concentration were collected predose and 0.5, 1, 2, 3, 4, 5, 6, 8, 10, 12, 16, 24, and 48 hours after treatment administration. Plasma was obtained by centrifugation and […] processed for protein precipitation, centrifuged again to remove the precipitate and the supernatant prepared for LC-MSMS analysis. LUM002 plasma concentrations were determined using a validated liquid chromatography tandem mass spectrometry (LC-MSMS) assay with a lower limit of quantification (LLOQ) of 0.1 ng/mL. LUM002 plasma concentrations were used to determine the following pharmacokinetic parameters using standard noncompartmental techniques: Cmax, Tmax, AUClast, and, if applicable due to the low-absorbable characteristics of LUM002, also AUC, AUC0-24 and t1/2.
# GLP-2 = GLP-2 in plasma of non-fasted ZDF rats, 2 weeks treatment; format: in vivo
# [2] = 100 mg single oral dose, Geometric Mean, N=6
# [3] = 100 mg single oral dose, Median, N=6
# [4] = 100 mg single oral dose, Subject 250001149
# [5] = 100 mg single oral dose, Subject 250001150
# [6] = 100 mg single oral dose, Subject 250001151
# [7] = 100 mg single oral dose, Subject 250001154
# [8] = 100 mg single oral dose, Subject 250001155
# [9] = 100 mg single oral dose, Subject 750001156
# [10] = 100 mg single oral dose, mean, N=6
smiles,measurement,setting,value
CCCCC1(CCCC)CS(=O)(=O)c2ccc(N(C)C)cc2[C@@H](c2ccc(OCc3ccc(C[N+]45CCN(CC4)CC5)cc3)cc2)[C@H]1O [LUM001],Mean Daily Total Fecal Bile Acids Excretion,"fecal bile acids; 0.5 mg (n=16), Days 9-14",266.8 μmole/24 hr
same,Mean Daily Total Fecal Bile Acids Excretion,"fecal bile acids; 0.5 mg (n=16), Days 23-28",294.9 μmole/24 hr
same,Mean Daily Total Fecal Bile Acids Excretion,"fecal bile acids; 1.0 mg (n=8), Days 9-14",642.7 μmole/24 hr
same,Mean Daily Total Fecal Bile Acids Excretion,"fecal bile acids; 1.0 mg (n=8), Days 23-28",780.3 μmole/24 hr
same,Mean Daily Total Fecal Bile Acids Excretion,"fecal bile acids; 2.5 mg (n=8), Days 9-14",478.0 μmole/24 hr
same,Mean Daily Total Fecal Bile Acids Excretion,"fecal bile acids; 2.5 mg (n=8), Days 23-28",590.7 μmole/24 hr
same,Mean Daily Total Fecal Bile Acids Excretion,"fecal bile acids; 5 mg (n=8), Days 9-14",1105.1 μmole/24 hr
same,Mean Daily Total Fecal Bile Acids Excretion,"fecal bile acids; 5 mg (n=8), Days 23-28",848.4 μmole/24 hr
same,Mean Daily Total Fecal Bile Acids Excretion,"fecal bile acids; 5 mg qPM (n=15), Days 9-14",496.9 μmole/24 hr
same,Mean Daily Total Fecal Bile Acids Excretion,"fecal bile acids; 5 mg qPM (n=15), Days 23-28",593.3 μmole/24 hr
same,Mean Daily Total Fecal Bile Acids Excretion,"fecal bile acids; 10 mg (n=8), Days 9-14",1237.0 μmole/24 hr
same,Mean Daily Total Fecal Bile Acids Excretion,"fecal bile acids; 10 mg (n=8), Days 23-28",1126.0 μmole/24 hr
same,Mean Daily Total Fecal Bile Acids Excretion,"fecal bile acids; 20 mg (n=16), Days 9-14",902.9 μmole/24 hr
same,Mean Daily Total Fecal Bile Acids Excretion,"fecal bile acids; 20 mg (n=16), Days 23-28",865.2 μmole/24 hr
same,Mean Daily Total Fecal Bile Acids Excretion,"fecal bile acids; 60 mg (n=8), Days 9-14",973.4 μmole/24 hr
same,Mean Daily Total Fecal Bile Acids Excretion,"fecal bile acids; 60 mg (n=8), Days 23-28",964.5 μmole/24 hr
same,Mean Daily Total Fecal Bile Acids Excretion,"fecal bile acids; 100 mg (n=8), Days 9-14",2405.7 μmole/24 hr
same,Mean Daily Total Fecal Bile Acids Excretion,"fecal bile acids; 100 mg (n=8), Days 23-28",1718.3 μmole/24 hr
same,Fecal Bile Acids,"fecal bile acids; healthy adults, multiple oral doses, 28 days",significant increase in fecal bile acids
"CCCC[C@]1(CC)CS(=O)(=O)c2ccc(N(C)C)cc2[C@@H](c2cccc(NC(=O)N[C@@H]3O[C@H](COS(=O)(=O)[O-])[C@@H](O)[C@H](OCc4ccccc4)[C@H]3O)c2)[C@H]1O.CCO.O.[K+] [LUM002, potassium((2R,3R,4S,5R,6R)-4-benzyloxy-6-{3-[3-((3S,4R,5R)-3-butyl-7-dimethylamino-3-ethyl-4-hydroxy-1,1-dioxo-2,3,4,5-tetrahydro-1H-benzo[b]thiepin-5-yl)-phenyl]-ureido}-3,5-dihydroxy-tetrahydro-pyran-2-ylmethyl)sulphate ethanolate, hydrate]",Plasma lipase,plasma lipase,statistically significant reductions in plasma lipase at higher doses
same,AUClast,[1]; [2],0.187 ng·h/mL
same,Cmax,[1]; [2],0.197 ng/mL
same,Tmax,[1]; [2],3.22 h
same,tlast,[1]; [2],4.93 h
same,AUClast,[1]; [3],0.148 ng·h/mL
same,Cmax,[1]; [3],0.216 ng/mL
same,Tmax,[1]; [3],5.00 h
same,tlag,[1]; [3],1.00 h
same,tlast,[1]; [3],5.00 h
same,AUC0-24,[1]; [4],1.92 ng·h/mL
same,AUCExt,[1]; [4],39%
same,AUClast,[1]; [4],1.19 ng·h/mL
same,Cmax,[1]; [4],0.300 ng/mL
same,Tmax,[1]; [4],5.00 h
same,t1/2z,[1]; [4],3.39 h
same,tlag,[1]; [4],0.00 h
same,tlast,[1]; [4],8.00 h
same,AUClast,[1]; [5],0.0815 ng·h/mL
same,Cmax,[1]; [5],0.163 ng/mL
same,Tmax,[1]; [5],5.00 h
same,tlag,[1]; [5],4.00 h
same,tlast,[1]; [5],5.00 h
same,AUClast,[1]; [6],0.0645 ng·h/mL
same,Cmax,[1]; [6],0.129 ng/mL
same,Tmax,[1]; [6],3.00 h
same,tlag,[1]; [6],2.00 h
same,tlast,[1]; [6],3.00 h
same,AUClast,[1]; [7],0.215 ng·h/mL
same,Cmax,[1]; [7],0.269 ng/mL
same,Tmax,[1]; [7],6.00 h
same,tlag,[1]; [7],0.00 h
same,tlast,[1]; [7],6.00 h
same,AUClast,[1]; [8],0.522 ng·h/mL
same,Cmax,[1]; [8],0.286 ng/mL
same,Tmax,[1]; [8],0.50 h
same,tlag,[1]; [8],0.00 h
same,tlast,[1]; [8],4.00 h
same,AUClast,[1]; [9],0.0600 ng·h/mL
same,Cmax,[1]; [9],0.120 ng/mL
same,Tmax,[1]; [9],5.00 h
same,tlag,[1]; [9],4.00 h
same,tlast,[1]; [9],5.00 h
same,AUClast,[1]; [10],0.355 ng·h/mL
same,Cmax,[1]; [10],0.211 ng/mL
same,Tmax,[1]; [10],4.08 h
same,tlag,[1]; [10],1.67 h
same,tlast,[1]; [10],5.17 h
same,LUM002 dose systemically absorbed,"[1]; healthy male subjects, single oral solution 100 mg, fasting",Less than 1%
same,GLP-2 in plasma,GLP-2,significant elevations in GLP2 at higher doses

# From US20140271734A1, “BILE ACID RECYCLING INHIBITORS FOR TREATMENT OF BARRETT'S ESOPHAGUS AND GASTROESOPHAGEAL REFLUX DISEASE” (LUMENA PHARMACEUTICALS, INC., priority 2013, published 2014)
